# “Also recorded” adds a separate entry of the source.
# Test system: Japanese patients with R/R iNHL
# Experiment: Phase 1 dose-escalation study: safety and tolerability (TEAEs, DLTs)
# Type: in vivo
# Excerpt: Japanese patients aged ≥ 20 years with R/R iNHL histologically confirmed as FL, nodal MZL, extra-nodal MZL of mucosa-associated lymphoid tissue, small lymphocytic lymphoma, lymphoplasmacytic lymphoma, Waldenström’s macroglobulinemia, or equivalent, according to World Health Organization classification, were eligible for this study. Other key eligibility criteria included being PI3K inhibitor therapy-naïve and an Eastern Cooperative Oncology Group performance status of 0 or 1. Further details of inclusion and exclusion criteria are provided in Supplementary Table 1.
# This was a multicenter, open-label, dose-escalation, phase 1 study in Japan. All patients received oral zandelisib once daily at the same time each day, at least 1 h before or 2 h after a meal (CS: continuous schedule). Each treatment cycle was 28 days. Definitions of the DLTs described in this study can be found in Supplementary Table 2. The observation period for DLTs was from day 1 of Cycle 1 to day 1 of Cycle 2. Zandelisib was administered until disease progression or unacceptable toxicity. In the event of an AE, patients could be switched to IDT. In the case of disease progression while receiving IDT, patients could be switched back to CS per the investigator’s discretion.
# A starting dose of 45 mg was set for investigating patient safety. This study adopted a standard 3 + 3 design. […] If DLTs occurred in 2 or more patients, the study was planned to be suspended pending a safety evaluation. If a DLT occurred in 1 patient, 3 further patients were added to cohort 1. If DLTs occurred in 0/3 or 1/6 patients in cohort 1, dosing in cohort 2 commenced (n = 6; 60 mg/day). If the incidence of DLTs in cohort 2 was ≤ 1/6, the maximum tolerated dose was not determined, and the dose in cohort 2 was to be selected as the recommended Japanese phase 2 dose.
# The primary endpoint was the safety [number of patients with treatment-emergent adverse events (TEAEs), based on Common Terminology Criteria for Adverse Events version 5.0] and tolerability (including laboratory values, vital signs, and electrocardiogram performance) of zandelisib in Japanese patients. Hepatobiliary disorder, aspartate/alanine (AST/ALT) increased, diarrhea/colitis, organizing pneumonia, stomatitis, or rash were defined as irAEs in this manuscript. Secondary endpoints included PK (plasma concentrations and PK parameters) and the efficacy of zandelisib. […] The PK parameters for Cycle 1 day 1 and Cycle 2 day 1 were calculated for each patient by non-compartmental analysis. PK parameters included maximum plasma drug concentration (Cmax), area under the plasma concentration–time curve (AUC) from time zero to the last measurable point (AUC0–t), the AUC from time zero to infinity (AUC0-inf), and terminal half-life (t1/2).
smiles,measurement,setting,value
CN1CCC(c2ccccc2CC(C)(C)Nc2nc(N3CCOCC3)nc(-n3c(C(F)F)nc4ccccc43)n2)CC1 [zandelisib],"TEAE Infections and infestations (SOC), All grades","60 mg, n = 6",4 (66.7) n (%)
same,"TEAE Infections and infestations (SOC), Grade ≥ 3","60 mg, n = 6",0 n (%)
same,"TEAE Infusion site extravasation, All grades","60 mg, n = 6",0 n (%)
same,"TEAE Infusion site extravasation, Grade ≥ 3","60 mg, n = 6",0 n (%)
same,"TEAE Insomnia, All grades","60 mg, n = 6",0 n (%)
same,"TEAE Insomnia, Grade ≥ 3","60 mg, n = 6",0 n (%)
same,"TEAE Investigations (SOC), All grades","60 mg, n = 6",6 (100.0) n (%)
same,"TEAE Investigations (SOC), Grade ≥ 3","60 mg, n = 6",4 (66.7) n (%)
same,"TEAE Joint effusion, All grades","60 mg, n = 6",0 n (%)
same,"TEAE Joint effusion, Grade ≥ 3","60 mg, n = 6",0 n (%)
same,"TEAE Lymphocyte count decreased, All grades","60 mg, n = 6",1 (16.7) n (%)
same,"TEAE Lymphocyte count decreased, Grade ≥ 3","60 mg, n = 6",0 n (%)
same,"TEAE Metabolism and nutrition disorders (SOC), All grades","60 mg, n = 6",0 n (%)
same,"TEAE Metabolism and nutrition disorders (SOC), Grade ≥ 3","60 mg, n = 6",0 n (%)
same,"TEAE Muscle spasms, All grades","60 mg, n = 6",0 n (%)
same,"TEAE Muscle spasms, Grade ≥ 3","60 mg, n = 6",0 n (%)
same,"TEAE Musculoskeletal and connective tissue disorders (SOC), All grades","60 mg, n = 6",2 (33.3) n (%)
same,"TEAE Musculoskeletal and connective tissue disorders (SOC), Grade ≥ 3","60 mg, n = 6",0 n (%)
same,"TEAE Nasopharyngitis, All grades","60 mg, n = 6",3 (50.0) n (%)
same,"TEAE Nasopharyngitis, Grade ≥ 3","60 mg, n = 6",0 n (%)
same,"TEAE Nausea, All grades","60 mg, n = 6",2 (33.3) n (%)
same,"TEAE Nausea, Grade ≥ 3","60 mg, n = 6",0 n (%)
same,"TEAE Nervous system disorders (SOC), All grades","60 mg, n = 6",0 n (%)
same,"TEAE Nervous system disorders (SOC), Grade ≥ 3","60 mg, n = 6",0 n (%)
same,"TEAE Neutrophil count decreased, All grades","60 mg, n = 6",6 (100.0) n (%)
same,"TEAE Neutrophil count decreased, Grade ≥ 3","60 mg, n = 6",4 (66.7) n (%)
same,"TEAE Oral herpes, All grades","60 mg, n = 6",0 n (%)
same,"TEAE Oral herpes, Grade ≥ 3","60 mg, n = 6",0 n (%)
same,"TEAE Organizing pneumonia, All grades","60 mg, n = 6",0 n (%)
same,"TEAE Organizing pneumonia, Grade ≥ 3","60 mg, n = 6",0 n (%)
same,"TEAE Oropharyngeal pain, All grades","60 mg, n = 6",2 (33.3) n (%)
same,"TEAE Oropharyngeal pain, Grade ≥ 3","60 mg, n = 6",0 n (%)
same,"TEAE Pancreatitis, All grades","60 mg, n = 6",0 n (%)
same,"TEAE Pancreatitis, Grade ≥ 3","60 mg, n = 6",0 n (%)
same,"TEAE Pharyngeal paresthesia, All grades","60 mg, n = 6",1 (16.7) n (%)
same,"TEAE Pharyngeal paresthesia, Grade ≥ 3","60 mg, n = 6",0 n (%)
same,"TEAE Pruritus, All grades","60 mg, n = 6",1 (16.7) n (%)
same,"TEAE Pruritus, Grade ≥ 3","60 mg, n = 6",0 n (%)
same,"TEAE Psychiatric disorders (SOC), All grades","60 mg, n = 6",0 n (%)
same,"TEAE Psychiatric disorders (SOC), Grade ≥ 3","60 mg, n = 6",0 n (%)
same,"TEAE Rash maculopapular, All grades","60 mg, n = 6",4 (66.7) n (%)
same,"TEAE Rash maculopapular, Grade ≥ 3","60 mg, n = 6",1 (16.7) n (%)
same,"TEAE Rash, All grades","60 mg, n = 6",3 (50.0) n (%)
same,"TEAE Rash, Grade ≥ 3","60 mg, n = 6",0 n (%)
same,"TEAE Renal and urinary disorders (SOC), All grades","60 mg, n = 6",0 n (%)
same,"TEAE Renal and urinary disorders (SOC), Grade ≥ 3","60 mg, n = 6",0 n (%)
same,"TEAE Renal impairment, All grades","60 mg, n = 6",0 n (%)
same,"TEAE Renal impairment, Grade ≥ 3","60 mg, n = 6",0 n (%)
same,"TEAE Respiratory, thoracic, and mediastinal disorders (SOC), All grades","60 mg, n = 6",3 (50.0) n (%)
same,"TEAE Respiratory, thoracic, and mediastinal disorders (SOC), Grade ≥ 3","60 mg, n = 6",0 n (%)
same,"TEAE Skin and subcutaneous tissue disorders (SOC), All grades","60 mg, n = 6",6 (100.0) n (%)
same,"TEAE Skin and subcutaneous tissue disorders (SOC), Grade ≥ 3","60 mg, n = 6",1 (16.7) n (%)
same,"TEAE Stomatitis, All grades","60 mg, n = 6",1 (16.7) n (%)
same,"TEAE Stomatitis, Grade ≥ 3","60 mg, n = 6",0 n (%)
same,"TEAE Subcutaneous abscess, All grades","60 mg, n = 6",1 (16.7) n (%)
same,"TEAE Subcutaneous abscess, Grade ≥ 3","60 mg, n = 6",0 n (%)
same,"TEAE Tinnitus, All grades","60 mg, n = 6",0 n (%)
same,"TEAE Tinnitus, Grade ≥ 3","60 mg, n = 6",0 n (%)
same,"TEAE Urticaria, All grades","60 mg, n = 6",0 n (%)
same,"TEAE Urticaria, Grade ≥ 3","60 mg, n = 6",0 n (%)
same,"TEAE Vomiting, All grades","60 mg, n = 6",2 (33.3) n (%)
same,"TEAE Vomiting, Grade ≥ 3","60 mg, n = 6",0 n (%)
same,"TEAE WBC count decreased, All grades","60 mg, n = 6",2 (33.3) n (%)
same,"TEAE WBC count decreased, Grade ≥ 3","60 mg, n = 6",0 n (%)
same,maximum tolerated dose (MTD),45 and 60 mg/day,not reached
same,dose-limiting toxicities (DLTs),"45 and 60 mg/day, N = 9",No dose-limiting toxicities were observed; also recorded: No DLTs were reported; also recorded: no DLTs or fatal events were observed
same,recommended phase 2 dose (RP2D),Japanese patients,60 mg/day
same,Grade 3 irAEs,N = 9,7 patients
same,Grade ≤ 3 irAEs,N = 9,All patients experienced Grade ≤ 3 irAEs
same,Grade ≥ 3 diarrhea,N = 9,33.3%
same,Grade ≥ 3 neutrophil count decreased,N = 9,55.6%
same,discontinued due to SAEs,N = 9,3 patients
same,dosing interrupted due to irAEs,N = 9,7 patients
same,dosing interrupted due to neutrophil count decreased,N = 9,1 patients
same,incidence of TEAEs ≥ Grade 3,N = 9,77.8%
same,number of serious AEs (SAEs),N = 9,6
same,zandelisib discontinuation due to immune-related toxicities,N = 9,4 patients
same,patients with serious AEs (SAEs),"N = 9, all Grade 3, treatment related",44.4%
same,incidence of TEAEs in all patients,"N = 9, all grades",100%
same,"TEAE ALT increased, All grades","Total, N = 9",3 (33.3) n (%)
same,"TEAE ALT increased, Grade ≥ 3","Total, N = 9",0 n (%)
same,"TEAE AST increased, All grades","Total, N = 9",5 (55.6) n (%)
same,"TEAE AST increased, Grade ≥ 3","Total, N = 9",0 n (%)
same,"TEAE Abdominal discomfort, All grades","Total, N = 9",1 (11.1) n (%)
same,"TEAE Abdominal discomfort, Grade ≥ 3","Total, N = 9",0 n (%)
same,"TEAE Abdominal pain upper, All grades","Total, N = 9",1 (11.1) n (%)
same,"TEAE Abdominal pain upper, Grade ≥ 3","Total, N = 9",0 n (%)
same,"TEAE Amylase increased, All grades","Total, N = 9",1 (11.1) n (%)
same,"TEAE Amylase increased, Grade ≥ 3","Total, N = 9",0 n (%)
same,"TEAE Anemia, All grades","Total, N = 9",1 (11.1) n (%)
same,"TEAE Anemia, Grade ≥ 3","Total, N = 9",0 n (%)
same,"TEAE Arthralgia, All grades","Total, N = 9",2 (22.2) n (%)
same,"TEAE Arthralgia, Grade ≥ 3","Total, N = 9",0 n (%)
same,"TEAE Back pain, All grades","Total, N = 9",1 (11.1) n (%)
same,"TEAE Back pain, Grade ≥ 3","Total, N = 9",0 n (%)
same,"TEAE Blepharitis, All grades","Total, N = 9",1 (11.1) n (%)
same,"TEAE Blepharitis, Grade ≥ 3","Total, N = 9",0 n (%)
same,"TEAE Blood and lymphatic system disorders (SOC), All grades","Total, N = 9",1 (11.1) n (%)
same,"TEAE Blood and lymphatic system disorders (SOC), Grade ≥ 3","Total, N = 9",0 n (%)
same,"TEAE Blood creatinine increased, All grades","Total, N = 9",1 (11.1) n (%)
same,"TEAE Blood creatinine increased, Grade ≥ 3","Total, N = 9",0 n (%)
same,"TEAE Bradycardia, All grades","Total, N = 9",1 (11.1) n (%)
same,"TEAE Bradycardia, Grade ≥ 3","Total, N = 9",0 n (%)
same,"TEAE CMV test positive, All grades","Total, N = 9",3 (33.3) n (%)
same,"TEAE CMV test positive, Grade ≥ 3","Total, N = 9",0 n (%)
same,"TEAE Cardiac disorders (SOC), All grades","Total, N = 9",1 (11.1) n (%)
same,"TEAE Cardiac disorders (SOC), Grade ≥ 3","Total, N = 9",0 n (%)
same,"TEAE Conjunctivitis, All grades","Total, N = 9",2 (22.2) n (%)
same,"TEAE Conjunctivitis, Grade ≥ 3","Total, N = 9",0 n (%)
same,"TEAE Constipation, All grades","Total, N = 9",4 (44.4) n (%)
same,"TEAE Constipation, Grade ≥ 3","Total, N = 9",0 n (%)
same,"TEAE Cough, All grades","Total, N = 9",1 (11.1) n (%)
same,"TEAE Cough, Grade ≥ 3","Total, N = 9",0 n (%)
same,"TEAE Cytomegalovirus infection, All grades","Total, N = 9",1 (11.1) n (%)
same,"TEAE Cytomegalovirus infection, Grade ≥ 3","Total, N = 9",0 n (%)
same,"TEAE Cytomegalovirus viremia, All grades","Total, N = 9",1 (11.1) n (%)
